According to PMC7168207, “Dibasic Derivatives of Phenylcarbamic Acid as Prospective Antibacterial Agents Interacting with Cytoplasmic Membrane” (Antibiotics, 2020):
“And” between values parts separate entries of the source, which are not always exact repeats. Identical values can stand only once.

Key:
[1] = system: methicillin-resistant S. aureus SA 630; test: MIC, broth microdilution; type: cell-based, Staphylococcus aureus; conditions: Staphylococcus aureus; MRSA2 = SA 630; read-out: MICs
Experimental: (§1) The modified broth microdilution method was used for in vitro evaluation of minimum inhibitory concentration. A small portion of bacterial colony cultivated overnight onto nutrient agar (Oxoid, Basingstoke, UK) with 5% bovine blood was suspended in sterile phosphate-buffered saline to get cell density 0.5 McFarland. This inoculum was diluted to reach the final concentration of bacterial cells 5 × 10^5 CFU/mL in the wells. […] For plates with staphylococci, cation adjusted Mueller–Hinton (CaMH) broth (Oxoid) was used; enterococci were cultivated in brain heart infusion (BHI, Oxoid). […] A drug-free control and a sterility control were included. Inoculated plates were incubated in aerobic atmosphere at 37 °C overnight. […] After evaluation of MICs, 10 µL of aliquots from the wells were put onto Mueller–Hinton agar. The agar plates were cultivated at 37 °C for 24 h. The minimum bactericidal concentration (MBC) was defined as the lowest concentration of the compound that killed 99.9% of the bacteria compared to the starting inoculum.

S. aureus ATCC 29213 = test: MIC, broth microdilution; type: cell-based, Staphylococcus aureus; conditions: Staphylococcus aureus, ATCC29213; SA = S. aureus ATCC 29213; read-out: MICs
Experimental: as §1

[2] = system: methicillin-resistant S. aureus 63718; test: MIC, broth microdilution; type: cell-based, Staphylococcus aureus; conditions: Staphylococcus aureus; MRSA1 = S. aureus 63718; read-out: MICs
Experimental: as §1

[3] = system: methicillin-resistant S. aureus SA 3202; test: MIC, broth microdilution; type: cell-based, Staphylococcus aureus; conditions: Staphylococcus aureus; MRSA3 = SA 3202; read-out: MICs
Experimental: as §1

[4] = parameters: method as in PMID 30274224; conditions: isocratic RP-HPLC, extrapolated lipophilicity index; cited from earlier work
[5] = system: vancomycin-resistant enterococci VRE 725B; test: MIC, broth microdilution; type: cell-based, Enterococcus faecalis; conditions: Enterococcus; VRE3 = VRE 725B; read-out: MICs
Experimental: as §1

[6] = system: vancomycin-resistant enterococci VRE 342B; test: MIC, broth microdilution; type: cell-based, Enterococcus faecalis; conditions: Enterococcus; VRE1 = VRE 342B; read-out: MICs
Experimental: as §1

E. faecalis ATCC 29212 = test: MIC, broth microdilution; type: cell-based, Enterococcus faecalis; conditions: Enterococcus faecalis, ATCC 29212 / ATCC 29213; EF = E. faecalis ATCC 29213
Experimental: as §1

[7] = system: vancomycin-resistant enterococci VRE 368; test: MIC, broth microdilution; type: cell-based, Enterococcus faecalis; conditions: Enterococcus; VRE2 = VRE 368; read-out: MICs
Experimental: as §1

[8] = system: Candida albicans CCM 8261; test: minimum fungistatic concentration, RPMI 1640; type: cell-based; conditions: CCM8261, CA = C albicans CCM 8261, 48 h
Experimental: Fungistatic activity was tested similarly in RPMI (Roswell Park Memorial Institute) 1640 medium (Sigma, Pool, UK). […] A growth control and sterility control were included. The colonies of C. albicans grown overnight on Sabourad dextrose agar were suspended in sterile phosphate-buffered saline (PBS) to get cell density 0.5 McFarland. The inoculum was diluted to get a final concentration of 10^3 CFU/mL in the wells. Plates were inoculated and cultivated at 37 °C for 48 h. The minimum fungistatic concentration was visually evaluated as the lowest concentration of a tested compound, which inhibited 100% of yeast growth. 5-Flucytosin (Sigma, UK) was used as a positive control.

[9] = parameters: method as in PMID 30274224; conditions: methanolic solutions, c = 8.0 × 10^−5 M; cited from earlier work
[10] = parameters: method as in PMID 30274224; conditions: cited from earlier work
[11] = system: human monocytic leukemia THP-1 cells; test: in vitro antiproliferative assay (WST-1); type: cell-based; conditions: Homo sapiens, THP-1, 24 h, THP-1 cells, WST-1, 24 h; read-out: Tox IC50
Experimental: The preliminary in vitro screening of the antiproliferative effect of the investigated compounds was performed using a Water Soluble Tetrazolium salts-1 (WST-1) assay kit and a human monocytic leukemia THP-1 cell line by means of the method described recently. The principle of the WST-1 assay kit is the […] mitochondrial dehydrogenases by antiproliferative compounds. The activity of this enzyme directly correlates with the number of metabolically active cells in the culture. The antiproliferative effect was evaluated as the IC50 value (the concentration of the compound causing 50% inhibition of cell proliferation).
Human monocytic leukemia THP-1 cells were used for in vitro antiproliferative assay. Cells were obtained from the European Collection of Cell Cultures (ECACC, Salisbury, UK) and routinely cultured in RPMI (Roswell Park Memorial Institute) 1640 medium supplemented with 10% fetal bovine serum, 2% L-glutamine, 1% penicillin, and streptomycin at 37 °C with 5% CO2. Cells were passaged at approximately one-week intervals. The antiproliferative activity of the compounds was determined using a Water Soluble Tetrazolium Salts-1 (WST-1, 2-(4-iodophenyl)-3-(4-nitrophenyl)-5-(2,4-disulfophenyl)-2H-tetrazolium) assay kit (Roche Diagnostics, Mannheim, Germany) according to the manufacturer’s instructions. The tested compounds were dissolved in DMSO and added in various compound concentrations to the cell suspension in the culture RPMI 1640 medium. The maximum concentration of DMSO in the assays never exceeded 0.1%. Subsequently, the cells were incubated at 37 °C with 5% CO2 for 24 h. For WST-1 assays, cells were seeded into 96-well plates (5 × 10^4 cells/well in 100 μL culture medium) in triplicate in serum-free RPMI 1640 medium, and measurements were taken 24 h after the treatment with the compounds. The median inhibition concentration values, IC50, were deduced through the production of a dose-response curve. All data were evaluated using GraphPad Prism 5.00 software (GraphPad Software, San Diego, CA, USA).

| MIC [1] | MIC (S. aureus ATCC 29213) | MIC [2] | MIC [3] | MIC [5] | MIC [6] | MIC (E. faecalis ATCC 29212) | MIC [7] | MIC [8] | SMILES | log kw [4] | log ε2 (Ch-T) [9] | γ (surface tension, relative surface activity) [10] [N/m] | IC50 [11] [µM] |
| --- | --- | --- | --- | --- | --- | --- | --- | --- | --- | --- | --- | --- | --- |
| > 256 µg/mL and > 427 µM | > 256 µg/mL and > 427 µM | > 256 µg/mL and > 427 µM | > 256 µg/mL and > 427 µM | > 256 µg/mL and > 427 µM | > 256 µg/mL and > 427 µM | > 256 µg/mL and > 427 µM | > 256 µg/mL and > 427 µM | > 128 µg/mL and > 213 µM | CCCCOc1ccccc1NC(=O)OC(CN(CCC)CCC)CN1CCCC1 (centres unmarked) [1a] | 3.7688 | 4.19 | 0.06464 | 10.8 ± 1.11 |
| > 256 µg/mL and > 417 µM | > 256 µg/mL and > 417 µM | > 256 µg/mL and > 417 µM | > 256 µg/mL and > 417 µM | > 256 µg/mL and > 417 µM | > 256 µg/mL and > 417 µM | > 256 µg/mL and > 417 µM | > 256 µg/mL and > 417 µM | > 128 µg/mL and > 208 µM | CCCCCOc1ccccc1NC(=O)OC(CN(CCC)CCC)CN1CCCC1 (centres unmarked) [1b] | 4.0454 | 4.05 | 0.06366 | 12.5 ± 1.22 |
| > 256 µg/mL and > 407 µM | > 256 µg/mL and > 407 µM | > 256 µg/mL and > 407 µM | > 256 µg/mL and > 407 µM | > 256 µg/mL and > 407 µM | > 256 µg/mL and > 407 µM | > 256 µg/mL and > 407 µM | > 256 µg/mL and > 407 µM | > 128 µg/mL and > 203 µM | CCCCCCOc1ccccc1NC(=O)OC(CN(CCC)CCC)CN1CCCC1 (centres unmarked) [1c] | 4.6049 | 4.52 | 0.06222 | 15.4 ± 0.22 |
| > 256 µg/mL and > 398 µM | > 256 µg/mL and > 398 µM | > 256 µg/mL and > 398 µM | > 256 µg/mL and > 398 µM | > 256 µg/mL and > 398 µM | > 256 µg/mL and > 398 µM | > 256 µg/mL and > 398 µM | > 256 µg/mL and > 398 µM | > 128 µg/mL and 199 µM | CCCCCCCOc1ccccc1NC(=O)OC(CN(CCC)CCC)CN1CCCC1 (centres unmarked) [1d] | 4.9487 | 4.08 | 0.05985 | 16.3 ± 0.7 |
| 64 µg/mL and 129 µM | 64 µg/mL and 129 µM | 64 µg/mL and 129 µM | 64 µg/mL and 129 µM | 32 µg/mL and 65.1 µM | 32 µg/mL and 65.1 µM | 128 µg/mL and 259 µM | 64 µg/mL and 129 µM | > 128 µg/mL and > 259 µM | CCCCOc1cccc(NC(=O)OC(CN(CCC)CCC)CN2CCCC2)c1 (centres unmarked) [1e] | 4.0258 | 4.24 | 0.06316 | 4.2 ± 0.79 |
| > 256 µg/mL and > 407 µM | > 256 µg/mL and > 407 µM | > 256 µg/mL and > 407 µM | > 256 µg/mL and > 407 µM | > 256 µg/mL and > 407 µM | > 256 µg/mL and > 407 µM | > 256 µg/mL and > 407 µM | > 256 µg/mL and > 407 µM | > 128 µg/mL and > 203 µM | CCCCOc1ccccc1NC(=O)OC(CN(CCC)CCC)CN1CCCCCC1 (centres unmarked) [1i] | 4.4679 | 4.08 | 0.06302 | 23.1 ± 0.95 |
| > 256 µg/mL and > 398 µM | > 256 µg/mL and > 398 µM | > 256 µg/mL and > 398 µM | > 256 µg/mL and > 398 µM | > 256 µg/mL and > 398 µM | > 256 µg/mL and > 398 µM | > 256 µg/mL and > 398 µM | > 256 µg/mL and > 398 µM | > 128 µg/mL and > 199 µM | CCCCCOc1ccccc1NC(=O)OC(CN(CCC)CCC)CN1CCCCCC1 (centres unmarked) [1j] | 4.8466 | 4.22 | 0.06206 | 26.4 ± 1.91 |
| > 256 µg/mL and > 390 µM | > 256 µg/mL and > 390 µM | > 256 µg/mL and > 390 µM | > 256 µg/mL and > 390 µM | > 256 µg/mL and > 390 µM | > 256 µg/mL and > 390 µM | > 256 µg/mL and > 390 µM | > 256 µg/mL and > 390 µM | > 128 µg/mL and > 195 µM | CCCCCCOc1ccccc1NC(=O)OC(CN(CCC)CCC)CN1CCCCCC1 (centres unmarked) [1k] | 5.2359 | 4.10 | 0.06065 | 31.2 ± 2.24 |
| > 256 µg/mL and > 382 µM | > 256 µg/mL and > 382 µM | > 256 µg/mL and > 382 µM | > 256 µg/mL and > 382 µM | > 256 µg/mL and > 382 µM | > 256 µg/mL and > 382 µM | > 256 µg/mL and > 382 µM | > 256 µg/mL and > 382 µM | > 128 µg/mL and > 191 µM | CCCCCCCOc1ccccc1NC(=O)OC(CN(CCC)CCC)CN1CCCCCC1 (centres unmarked) [1l] | 5.8966 | 4.14 | 0.05853 | 29.75 ± 0.14 |
| – | – | – | – | – | – | – | – | 1 µg/mL and 7.75 µM | Nc1[nH]c(=O)ncc1F [5-FC, flucytosine, reference compound] | – | – | – | – |
| > 16 µg/mL and > 45.8 µM | 2 µg/mL and 5.72 µM | 16 µg/mL and 45.8 µM | > 16 µg/mL and > 45.8 µM | 2 µg/mL and 5.72 µM | – | – | – | – | CC1(C)S[C@@H]2[C@H](NC(=O)[C@H](N)c3ccccc3)C(=O)N2[C@H]1C(=O)O [AMP, ampicillin, reference compound] | – | – | – | > 30 |
| – | – | – | – | – | – | – | – | – | CC[C@@]1(O)C(=O)OCc2c1cc1n(c2=O)Cc2cc3ccccc3nc2-1 [CMP, camptothecin, reference compound] | – | – | – | ~0.2 |
| > 16 µg/mL | – | > 16 µg/mL | > 16 µg/mL | – | – | – | – | – | O=C(O)c1cn(C2CC2)c2cc(N3CCNCC3)c(F)cc2c1=O [CPX, ciprofloxacin, reference compound] | – | – | – | – |
